Measurements published in patent publication US10294256B2, “Phosphine oxide alkyl amide substituted heteroaryl compounds as modulators of IL-12, IL-23 and/or IFN alpha responses” (BRISTOL-MYERS SQUIBB COMPANY, priority 2016, dated 2019).
Read-outs that look alike come from different tables or passages of the source.

Columns and labels:
[1] = target: recombinant human His-tagged Tyk2 pseudokinase domain (His-TVMV-Tyk2, 575-869) (Homo sapiens, UniProt P29597); experiment: Probe Displacement Assay (HTRF Format); conditions: 0.5 nM Tyk2 pseudokinase domain, 1 h room temperature, read-out: Binding IC50
recombinant human His-tagged Tyk2 pseudokinase domain (His-TVMV-Tyk2, 575-869), sequence (P29597 with tags, fused parts or gaps): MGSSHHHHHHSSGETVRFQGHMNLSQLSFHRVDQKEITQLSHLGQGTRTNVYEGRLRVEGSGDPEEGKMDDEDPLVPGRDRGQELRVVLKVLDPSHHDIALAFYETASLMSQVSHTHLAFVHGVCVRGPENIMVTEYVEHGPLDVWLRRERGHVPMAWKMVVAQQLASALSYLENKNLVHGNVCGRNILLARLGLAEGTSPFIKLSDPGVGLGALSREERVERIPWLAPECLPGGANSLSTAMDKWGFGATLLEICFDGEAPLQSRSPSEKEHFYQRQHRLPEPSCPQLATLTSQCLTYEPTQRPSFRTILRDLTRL
Protocol: To 10 μL 26 nM fluorescein labeled probe plus 0.2 nM anti-6×His-terbium labeled antibody (Medarex, labeled by Cisbio) in assay buffer (20 mM Hepes pH 7.5, 150 mM NaCl, 10 mM MgCl2, 2 mM DTT, 50 μg/mL BSA, and 0.015% Brij 35) was added 10 μL recombinant human His-tagged Tyk2 pseudokinase domain (His-TVMV-Tyk2, 575-869) to a final concentration of 0.5 nM. After 1 h at room temperature, the HTRF signal (ratio of fluorescence intensities at emission wavelengths for fluorescein acceptor at 520 nm and terbium donor at 495 nm) was measured on an Envision Plate Reader. Percent inhibition was calculated by comparison to a control without inhibitor and a control without protein.
Protein Sequence of recombinant His-tagged Tyk2 (575-869): […]

[2] = test system: IL-23 stimulated Kit225 T cells with STAT-dependent luciferase reporter; experiment: Kit225 T Cell Assay, IL-23 stimulated STAT-dependent luciferase reporter; assay type: cell-based, human
Protocol: (§1) Kit225 T cells with a stably-integrated STAT-dependent luciferase reporter were plated in RPMI (Gibco) containing 10% heat-inactivated FBS (Gibco) and 100 U/mL PenStrep (Gibco). The cells were then stimulated with either 20 ng/mL human recombinant IL-23 or 200 U/mL human recombinant IFNα (PBL InterferonSource) for 5-6 hours. Luciferase expression was measured using the STEADY-GLO® Luciferase Assay System (Promega) according to the manufacturer's instructions. Inhibition data were calculated by comparison to no inhibitor control wells for 0% inhibition and non-stimulated control wells for 100% inhibition.

[3] = test system: IFNα stimulated Kit225 T cells with STAT-dependent luciferase reporter; experiment: Kit225 T Cell Assay, IFNα stimulated STAT-dependent luciferase reporter; assay type: cell-based, human
Protocol: as §1

[4] = KIT225, 20 ng/mL human recombinant IL-23, 5-6 hours, luciferase reporter, read-out: IL23 Kit 225 IC50
[5] = KIT225, 200 U/mL human recombinant IFNα, 5-6 hours, luciferase reporter, read-out: IFN[…] Kit 225 IC50

Row | SMILES | IC50 [1] | IC50 [2, 4] | IC50 [3, 5] | IC50 ([2]; Homo sapiens, KIT225, read-out: IL23 Kit 225 IC50) | IC50 ([3]; Homo sapiens, KIT225, read-out: IFN[…] Kit 225 IC50)
1 | [2H]C([2H])([2H])NC(=O)c1nnc(Nc2ccc(C3CC3)cn2)cc1Nc1ncccc1P(C)(C)=O [Example 17] | 0.27 nM | 58 nM | 43 nM | – | –
2 | [2H]C([2H])([2H])NC(=O)c1nnc(Nc2cc(C)ccn2)cc1Nc1ncccc1P(C)(C)=O [Example 21] | 0.62 nM | 19 nM | 50 nM | – | –
3 | [2H]C([2H])([2H])NC(=O)c1nnc(Nc2ccc(Cl)cn2)cc1Nc1ncccc1P(C)(C)=O [Example 37] | 0.38 nM | 52.8 nM | 74 nM | – | –
4 | [2H]C([2H])([2H])NC(=O)c1nnc(NC(=O)C2CC2(C)C)cc1Nc1ncccc1P(C)(C)=O (stereo not drawn) [Example 28] | 17 nM | 6320 nM | 6340 nM | – | –
5 | [2H]C([2H])([2H])NC(=O)c1nnc(Nc2ccn(C)n2)cc1Nc1ccccc1P(C)(C)=O [Example 8] | 12 nM | 3700 nM | 1760 nM | – | –
6 | [2H]C([2H])([2H])NC(=O)c1nnc(Nc2cccc(C(F)(F)F)n2)cc1Nc1ncccc1P(C)(C)=O [Example 40] | 0.46 nM | 256 nM | 137 nM | – | –
7 | [2H]C([2H])([2H])NC(=O)c1nnc(Nc2cc(F)ccn2)cc1Nc1ncccc1P(C)(C)=O [Example 25] | 0.58 nM | 132 nM | 90 nM | – | –
8 | [2H]C([2H])([2H])NC(=O)c1nnc(Nc2ccc(N3CCOCC3)cn2)cc1Nc1ncccc1P(C)(C)=O [Example 42] | 0.62 nM | 298 nM | 266 nM | – | –
9 | [2H]C([2H])([2H])NC(=O)c1nnc(Nc2ccc(C(C)(C)O)c(F)n2)cc1Nc1ncccc1P(C)(C)=O [Example 34] | 0.86 nM | 1350 nM | 350 nM | – | –
10 | [2H]C([2H])([2H])NC(=O)c1nnc(Nc2ccc(C(C)(C)O)cn2)cc1Nc1ccccc1P(C)(C)=O [Example 6] | 2.2 nM | 3110 nM | 423 nM | – | –
11 | [2H]C([2H])([2H])NC(=O)c1nnc(Nc2ccc(OC(F)(F)F)cn2)cc1Nc1ncccc1P(C)(C)=O [Example 13] | 0.43 nM | 44 nM | 22 nM | – | –
12 | [2H]C([2H])([2H])NC(=O)c1nnc(NC(=O)C2CC2)cc1Nc1ccccc1P(C)(C)=O [Example 2] | 7.4 nM | 1800 nM | 3170 nM | – | –
13 | [2H]C([2H])([2H])NC(=O)c1nnc(Nc2cccc(OC)n2)cc1Nc1ncccc1P(C)(C)=O [Example 24] | 0.97 nM | 84 nM | 33 nM | – | –
14 | [2H]C([2H])([2H])NC(=O)c1nnc(Nc2cc(C3CC3)ccn2)cc1Nc1ncccc1P(C)(C)=O [Example 12] | 0.74 nM | 92 nM | 144 nM | – | –
15 | [2H]C([2H])([2H])NC(=O)c1nnc(Nc2cc(C)nc(C)n2)cc1Nc1ccccc1P(C)(C)=O [Example 3] | 1.6 nM | 3470 nM | 1560 nM | – | –
16 | [2H]C([2H])([2H])NC(=O)c1nnc(Nc2cccc(F)n2)cc1Nc1ncccc1P(C)(C)=O [Example 22] | 0.037 nM | – | – | 40 nM | 15 nM
17 | [2H]C([2H])([2H])NC(=O)c1nnc(Nc2ccccn2)cc1Nc1ncccc1P(C)(C)=O [Example 14] | 0.79 nM | 212 nM | 125 nM | – | –
18 | [2H]C([2H])([2H])NC(=O)c1nnc(Nc2ccn(C)n2)cc1Nc1ncccc1P(C)(C)=O [Example 23] | 2 nM | 1150 nM | 666 nM | – | –
19 | [2H]C([2H])([2H])NC(=O)c1nnc(Nc2ccc(C(C)(C)N)cn2)cc1Nc1ncccc1P(C)(C)=O [Example 35] | 1.2 nM | 1770 nM | 2290 nM | – | –
20 | [2H]C([2H])([2H])NC(=O)c1nnc(Nc2ccc(C(C)(C)O)cn2)cc1Nc1ncccc1P(C)(C)=O [Example 16] | 0.29 nM | 1210 nM | 673 nM | – | –
21 | [2H]C([2H])([2H])NC(=O)c1nnc(Nc2ccc(C(F)(F)F)cn2)cc1Nc1ncccc1P(C)(C)=O [Example 39] | 0.34 nM | 59.4 nM | 217 nM | – | –
22 | [2H]C([2H])([2H])NC(=O)c1nnc(Nc2ccc(OC)nn2)cc1Nc1ccccc1P(C)(C)=O [Example 4] | 10 nM | 2570 nM | 9160 nM | – | –
23 | [2H]C([2H])([2H])NC(=O)c1nnc(Nc2ccc(C)cn2)cc1Nc1ncccc1P(C)(C)=O [Example 30] | 0.56 nM | 121 nM | 32.3 nM | – | –
24 | [2H]C([2H])([2H])NC(=O)c1nnc(Nc2cc(Cl)c(C(C)(C)O)cn2)cc1Nc1ncccc1P(C)(C)=O [Example 36] | 0.53 nM | 927 nM | 905 nM | – | –

Continued, in another order:

Row | IC50 [1] | IC50 [2, 4] | IC50 [3, 5] | SMILES | IC50 ([2]; Homo sapiens, KIT225, read-out: IL23 Kit 225 IC50) | IC50 ([3]; Homo sapiens, KIT225, read-out: IFN[…] Kit 225 IC50)
25 | 0.58 nM | 67 nM | 50 nM | [2H]C([2H])([2H])NC(=O)c1nnc(Nc2cc(COC)ccn2)cc1Nc1ncccc1P(C)(C)=O [Example 20] | – | –
26 | 0.54 nM | 62 nM | 22.8 nM | [2H]C([2H])([2H])NC(=O)c1nnc(Nc2ccc(C)c(C)n2)cc1Nc1ncccc1P(C)(C)=O [Example 29] | – | –
27 | 2.9 nM | 3720 nM | 1480 nM | [2H]C([2H])([2H])NC(=O)c1nnc(NC(=O)C2CC23CC3)cc1Nc1ncccc1P(C)(C)=O (stereo not drawn) [Example 33] | – | –
28 | 0.54 nM | 114 nM | 48 nM | [2H]C([2H])([2H])NC(=O)c1nnc(Nc2ccc(F)cn2)cc1Nc1ncccc1P(C)(C)=O [Example 15] | – | –
29 | 0.92 nM | 322 nM | 206 nM | [2H]C([2H])([2H])NC(=O)c1nnc(Nc2ccc(C(O)(C(F)(F)F)C(F)(F)F)cn2)cc1Nc1ncccc1P(C)(C)=O [Example 41] | – | –
30 | 3.4 nM | 383 nM | 242 nM | [2H]C([2H])([2H])NC(=O)c1nnc(Nc2cc(C3CC3)ccn2)cc1Nc1ccccc1P(C)(C)=O [Example 1] | – | –
31 | 9.8 nM | 817 nM | 4160 nM | [2H]C([2H])([2H])NC(=O)c1nnc(NC(=O)OCC)cc1Nc1ncccc1P(C)(C)=O [Example 19] | – | –
32 | 13 nM | 12500 nM | 4610 nM | [2H]C([2H])([2H])NC(=O)c1nnc(NC(=O)[C@H]2CC2(C)C)cc1Nc1ncccc1P(C)(C)=O [Example 27] | – | –
33 | 1.4 nM | 282 nM | 514 nM | [2H]C([2H])([2H])NC(=O)c1nnc(NC(=O)C2CC2)cc1Nc1ncccc1P(C)(C)=O [Example 9] | – | –
34 | 0.54 nM | 45.3 nM | 53.9 nM | [2H]C([2H])([2H])NC(=O)c1nnc(Nc2ccc(F)c(C)n2)cc1Nc1ncccc1P(C)(C)=O [Example 31] | – | –
35 | 5.2 nM | 390 nM | 337 nM | [2H]C([2H])([2H])NC(=O)c1nnc(Nc2ccc(C3CC3)cn2)cc1Nc1ccccc1P(C)(C)=O [Example 5] | – | –
36 | 13 nM | 1440 nM | 799 nM | [2H]C([2H])([2H])NC(=O)c1nnc(Nc2ccc(N3CCOCC3)cn2)cc1Nc1ccccc1P(C)(C)=O [Example 7] | – | –
37 | 0.44 nM | 58 nM | 33 nM | [2H]C([2H])([2H])NC(=O)c1nnc(Nc2cccc(C)n2)cc1Nc1ncccc1P(C)(C)=O [Example 18] | – | –
